From patent US10696686B2, “Herbicidally active (alkynyl-phenyl)-substituted cyclic dione compounds and derivatives thereof” (Syngenta Limited, priority 2013, dated 2020)
Like-named read-outs stand apart in the source and are kept apart here.

How the values were obtained:
Assay type in all cases: in vivo
[1] = system: Glycine max (GLXMA, soybean) cultivar Nikko; test: Biological Example 3 glasshouse assay using various adjuvant systems, post-emergence foliar spray; settings: for percentage phytotoxicity on Glycine max (GLXMA, soybean) cultivar Nikko: post-emergence
Method: Post-emergence foliar spray application, 200 L/ha, usually one or two replicates for the weeds (depending on application rate), and two replicates for soybean.
Standard warm conditions (tropical), in glasshouse. Specifically, the glasshouse bay conditions are 24° C./18° C. day/night; 16/8 hours light/dark; 65% humidity.
The herbicidal application takes place at the following growth stages for plants which include inter alia one or more of the following plants (usually the herbicidal application takes place on at least the following plants: DIGSA, ELEIN, SETFA, ZEAMX, GLXMA Nikko, and GLXMA TMG133, and often also either BRADC or BRAPP):
Glycine max (GLXMA, soybean) cultivar “Nikko”—growth stage: 1st trifoliate
Each test compound is applied with one of the following adjuvant systems (all percentages are final concentrations in the aqueous spray mixture):
Adjuvant system 1: 0.5% v/v Adigor™ *, 1.0% v/v AMS (ammonium sulphate) and 12.5% v/v IPA (isopropyl alcohol).
Adjuvant system 1A: 0.5% v/v Adigor™ * and 12.5% v/v IPA (isopropyl alcohol).
CAS Registry no. 166412-78-8), and is usually available from BASF. “Isononyl” in this context is thought to mean a mixture of two or more branched isomers of C9H19. Method: Seeds of the weed (including volunteer) plants, typically including inter alia Digitaria sanguinalis (DIGSA), Eleusine indica (ELEIN), Setaria faberi (SETFA), Zea mays (ZEAMX, corn), and sometimes also [either Brachiaria decumbens (BRADC) or Brachiaria platyphylla (BRAPP)], are sown in seed trays (troughs) containing clay loam soil (pH 7.0, 2.2% organic matter, “Trough Mix A”); and soybean seed is sown in pots containing the same soil with 3 soybean seedlings per pot. The plants are sprayed with the test herbicide when they reach the growth stages mentioned above. The test herbicidal solutions are prepared by mixing the appropriate aliquots of the test substance(s) and one of the adjuvant systems indicated above *** in deionised water to give the desired treatment concentration. The herbicidal application is made as a foliar spray, using a tracksprayer. Following the herbicidal application, the plants are watered twice per day for the duration of the test. A visual assessment of the % herbicidal damage is made 7 and 14 Days After herbicide Application (DAA) (or, in a minority of cases, 7 and 15 DAA), and the results are recorded as % visual herbicidal damage where 0%=no damage to plants and 100%=plant totally killed. *** Adjuvant system=either Adigor™ or Hexamoll DINCH™ or tris-(2-ethylhexyl) phosphate each at 0.5% v/v, and 12.5% v/v IPA (isopropyl alcohol), and 1.0% v/v AMS (ammonium sulphate); or 0.5% v/v Adigor™ and 12.5% v/v IPA (isopropyl alcohol); all percentages are final concentrations in the aqueous spray mixture.
Compounds A8, A11 and A17, which are compounds of formula (I) according to the present invention, were tested in a test method substantially as described above.
Compound A8 was tested using the 0.5% v/v Adigor™+12.5% v/v IPA adjuvant system. Compounds A11 and A17 were tested using the 0.5% v/v Adigor™+1.0% v/v AMS+12.5% v/v IPA adjuvant system.
The percentages of herbicidal damage/plant control, at 14 Days After herbicide Application (DAA) (or, in a minority of cases, at 15 DAA), for the Compounds tested and for some of the plants tested, were in the following percentage ranges. At least for Compounds A8 and A17, the phytotoxicity results shown herein are the average of 2 repetitions (for the grassy weeds, corn and soybean). […] Control of Zea mays (ZEAMX, Corn), a Warm-Climate (Warm-Season) Grassy Plant Zea mays (ZEAMX, maize, corn) is often present as a “volunteer” weed (“volunteer” corn) in fields where it was planted as a crop in preceding growing season(s) and where the present field crop is not corn. […]

[2] = system: Zea mays (ZEAMX, corn, maize, e.g. volunteer corn); test: Biological Example 1A glasshouse assay, post-emergence application; settings: Zea mays, 312 h, post-emergence, read-out: Percentage phytotoxicity ZEAMX
Method: (§1) Seeds of a variety of test plant species were sown in standard soil ** in pots. After cultivation for one day (pre-emergence) or after 8 days cultivation (post-emergence) under controlled conditions in a glasshouse (at 24/16° C., day/night; 14 hours light; 65% humidity), the plants were sprayed with an aqueous spray solution derived from the formulation of the technical active ingredient (the test herbicide) in acetone/water (50:50) solution containing 0.5% Tween 20 (polyoxyethylene sorbitan monolaurate, CAS Reg. No. 9005-64-5). The test plants were then grown on under controlled conditions in a glasshouse (at 24/16° C., day/night; 14 hours light; 65% humidity) and watered twice daily. 13 Days after application of the test herbicide, for pre- and post-emergence, the test was evaluated visually for percentage phytotoxicity to each plant (where 100%=total damage to plant; 0%=no damage to plant). Generally, each test herbicide is only tested on 1 plant per plant species for each application rate tested and for each application timing. ** The “standard soil” in Biological Example 1 is usually a “sand” or “sandy loam” type of soil.
(§2) Dicotyledonous weeds: ABUTH=Abutilon theophrasti; AMARE=Amaranthus retroflexus. Grassy monocotyledonous weeds: SETFA=Setaria faberi; ALOMY=Alopecurus myosuroides; ECHCG=Echinochloa crus-galli; ZEAMX=Zea mays (corn, maize, e.g. volunteer corn). For Compound A16, the grassy monocotyledonous weed LOLPE (Lolium perenne) was used in the test insterad of ALOMY.

[3] = system: Alopecurus myosuroides (ALOMY); test: as above; settings: 13 days after application
Method: as §1, §2

[4] = system: Setaria faberi (SETFA); test: as above; settings: Setaria faberi, 312 h, post-emergence, read-out: Percentage phytotoxicity SETFA
Method: as §1, §2

[5] = system: Abutilon theophrasti (ABUTH); test: as above; settings: 312 h, read-out: Percentage phytotoxicity ABUTH
Method: as §1, §2

[6] = system: Amaranthus retroflexus (AMARE); test: as above; settings: 312 h, read-out: Percentage phytotoxicity AMARE
Method: as §1, §2

[7] = system: Echinochloa crus-galli (ECHCG); test: as above; settings: 312 h, read-out: Percentage phytotoxicity ECHCG
Method: as §1, §2

[8] = 30 g/ha, 13 days after application
[9] = 250 g/ha, 13 days after application

SMILES: CC#Cc1cc(F)c(C2C(=O)CC(CCSC)CC2=O)c(OC)c1 (stereo not shown) [Compound A11]
- percentage phytotoxicity on Glycine max (GLXMA, soybean) cultivar Nikko ([1]; 120 g/ha, 14 DAA (A11: 14 or 15 DAA), adjuvant 0.5% v/v Adigor + 1.0% v/v AMS + 12.5% v/v IPA): 5%
- percentage phytotoxicity on Glycine max (GLXMA, soybean) cultivar Nikko ([1]; 240 g/ha, 14 DAA (A11: 14 or 15 DAA), adjuvant 0.5% v/v Adigor + 1.0% v/v AMS + 12.5% v/v IPA): 5%
- pest or weed control at 30 g/ha [2, 8]: 20%
- pest or weed control at 250 g/ha [2, 9]: 20%
- Percentage phytotoxicity ALOMY ([3]; 30 g/ha): 0%
- Percentage phytotoxicity ALOMY ([3]; 250 g/ha): 10%
- pest or weed control at 30 g/ha [4, 8]: 30%
- pest or weed control at 250 g/ha [4, 9]: 60%
- pest or weed control at 30 g/ha [5, 8]: 0%
- pest or weed control at 250 g/ha [5, 9]: 10%
- pest or weed control at 30 g/ha [6, 8]: 30%
- pest or weed control at 250 g/ha [6, 9]: 50%
- pest or weed control at 30 g/ha [7, 8]: 0%
- pest or weed control at 250 g/ha [7, 9]: 10%

SMILES: C#CCC1CC(=O)C(c2c(F)cc(C#CC)cc2OC)C1=O (stereo not shown) [Compound A8, 2-(2-fluoro-6-methoxy-4-prop-1-ynyl-phenyl)-4-prop-2-ynyl-cyclopentane-1,3-dione]
- percentage phytotoxicity on Glycine max (GLXMA, soybean) cultivar Nikko ([1]; 120 g/ha, 14 DAA, adjuvant 0.5% v/v Adigor + 12.5% v/v IPA): 30%
- phytotoxicity on soybean (in words) ([1]; see Biological Example 3 (soybean cultivars Nikko and TMG133)): low phytotoxicity
- pest or weed control at 30 g/ha [2]: 100%
- pest or weed control at 250 g/ha [2]: 100%
- Percentage phytotoxicity ALOMY ([3]; 30 g/ha): 70%
- Percentage phytotoxicity ALOMY ([3]; 250 g/ha): 90%
- pest or weed control at 30 g/ha [4]: 80%
- pest or weed control at 250 g/ha [4]: 100%
- pest or weed control at 30 g/ha [5]: 0%
- pest or weed control at 250 g/ha [5]: 70%
- pest or weed control at 30 g/ha [6]: 0%
- pest or weed control at 250 g/ha [6]: 0%
- pest or weed control at 30 g/ha [7]: 100%
- pest or weed control at 250 g/ha [7]: 100%
